# Reference: paper PMC8592419 (PLoS ONE, 2021)
# Where a SMILES comes first, the peptide text is derived from it.
# Tests used:
# [1] = tested on: clinical isolates of M. abscessus; assay: In vitro susceptibility of potential AMPs, 3 days, summary over isolates; type: cell-based, Mycobacterium abscessus; settings: isolates MAB01 and MAB03
# Protocol: (§1) Briefly, serial dilutions of the AMPs were prepared with potassium phosphate buffer (PPB) from the concentration range of 3.125 to 400 μg/ml and then 50 μl of each dilution were added to each 96-well plate. Colonies of the isolate were suspended and then further diluted in Mueller-Hinton broth to obtain a final concentration of 1×10^3 CFU/ml (optimized according to the available AMP stock concentration). Fifty microliters of this inoculum were added to each well of the plates. The plates were incubated for 3 days at 37°C. Plain media and bacterial suspensions without AMPs were used as negative and positive controls. The MIC values were read and recorded. All assays were performed in duplicate and two independent experiments.
# (§2) For the in vitro antimicrobial susceptibility, the same protocol as described above was used. The culture plates were further incubated up to 3 days at 37°C. The MIC values were read and recorded.
# [2] = tested on: sixteen clinical Mab isolates; assay: 24-hour bactericidal activity assay, summary over isolates; type: cell-based, Mycobacterium abscessus; settings: majority of the tested strains (10/16 isolates); equivalent of <50 μg/ml
# Protocol: as §1
# Potential AMPs from the screening assays were subjected to determine the 24-hour bactericidal activity assays (corresponding to the common time of administration) with sixteen clinical Mab isolates using the protocol as described above. To observe the early antimicrobial activities, the plates were incubated for 24 h at 37°C. The samples from each well were further diluted in 0.05% Tween 80 and inoculated on Mueller-Hinton agar. After incubation for 3 days at 37°C, the colony-forming units (CFUs) were counted and calculated for the percentage of killing using the following formula: % killing = 1 - (CFU sample/ CFU control) ×100.
# [3] = tested on: M. abscessus clinical isolate MAB14; assay: microbe, parasite or virus in culture; type: cell-based, M. abscessus subsp. massiliense
# Protocol: (§3) Mab suspensions at a 5×10^5 CFU/ml final concentration were added to each well and incubated for 3 days and 14 days at 37°C. MIC values were defined when the percent killing of CFUs of more than 90% were compared to the media controls without AMPs or drugs. The fraction inhibitory concentration index (FICI) was calculated using the following formula: FICI = [C(MIC^A)/MIC^A] + [C(MIC^B)/MIC^B]. […] For interpretation, FICI ≤ 0.5 was interpreted as synergism, FICI >0.5–1.0 was interpreted as additive, FICI >1.0–4.0 was interpreted as indifferent and FICI >4.0 was interpreted as antagonism.
# [4] = tested on: M. abscessus clinical isolate MAB12; assay: microbe, parasite or virus in culture; type: cell-based, M. abscessus subsp. massiliense
# Protocol: as §3
# [5] = tested on: M. abscessus clinical isolate MAB03; assay: microbe, parasite or virus in culture; type: cell-based, M. abscessus subsp. abscessus
# Protocol: as §3
# [6] = tested on: M. abscessus clinical isolate MAB09; assay: microbe, parasite or virus in culture; type: cell-based, M. abscessus subsp. abscessus
# Protocol: as §3
# [7] = tested on: M. abscessus clinical isolate MAB02; assay: microbe, parasite or virus in culture; type: cell-based, M. abscessus subsp. abscessus
# Protocol: as §3
# [8] = tested on: M. abscessus clinical isolate MAB11; assay: microbe, parasite or virus in culture; type: cell-based, M. abscessus subsp. abscessus
# Protocol: as §3
# [9] = tested on: M. abscessus clinical isolate MAB01; assay: microbe, parasite or virus in culture; type: cell-based, M. abscessus subsp. abscessus
# Protocol: as §3
# [10] = tested on: M. abscessus clinical isolate MAB05; assay: microbe, parasite or virus in culture; type: cell-based, M. abscessus subsp. abscessus
# Protocol: as §3
# [11] = tested on: M. abscessus clinical isolate MAB10; assay: microbe, parasite or virus in culture; type: cell-based, M. abscessus subsp. abscessus
# Protocol: as §3
# [12] = tested on: M. abscessus clinical isolate MAB07; assay: microbe, parasite or virus in culture; type: cell-based, M. abscessus subsp. abscessus
# Protocol: as §3
# [13] = tested on: M. abscessus clinical isolate MAB16; assay: In vitro antimicrobial susceptibility of potential AMPs, broth microdilution, 3 days; type: cell-based, M. abscessus subsp. massiliense; settings: 3 days at 37°C
# Protocol: as §1, §2
# [14] = tested on: M. abscessus clinical isolate MAB15; assay: as above; type: cell-based, M. abscessus subsp. massiliense; settings: 3 days at 37°C
# Protocol: as §1, §2
# [15] = tested on: M. abscessus clinical isolate MAB06; type: cell-based, M. abscessus subsp. abscessus; settings: 3 days at 37°C
# Protocol: as §1, §2
# [16] = tested on: M. abscessus clinical isolate MAB13; type: cell-based, M. abscessus subsp. massiliense; settings: 3 days at 37°C
# Protocol: as §1, §2
# [17] = Mycobacteroides abscessus, read-out: MIC of CLA
structure (smiles),measurement,setting,value
CC[C@H](C)[C@H](NC(=O)[C@H](CCCCN)NC(=O)[C@H](CCCNC(=N)N)NC(=O)CNC(=O)[C@H](CC(C)C)NC(=O)[C@H](CO)NC(=O)[C@H](CCCNC(=N)N)NC(=O)[C@H](CC(C)C)NC(=O)CNC(=O)CN)C(=O)N[C@@H](CC(C)C)C(=O)N[C@@H](CCCNC(=N)N)C(=O)N[C@@H](C)C(=O)N[C@@H](Cc1c[nH]c2ccccc12)C(=O)N[C@@H](CCCCN)C(=O)O [S63] (H-GGLRSLGRKILRAWK-OH),MIC values after 3 days,[1],3.65 to 7.30 µM
same,MIC with ~99% killed within 24 h,[2],< 29.22 µM
same,FICI,"[3]; MAB14, AMP + CLA, mean ± S.D., two independent experiments",0.19±0.00
same,"MIC, AMP alone","[3]; MAB14, AMP alone",>400 µg/mL
same,FICI,"[4]; MAB12, AMP + CLA, mean ± S.D., two independent experiments",1.01±0.00
same,"MIC, AMP alone","[4]; MAB12, AMP alone",>400 µg/mL
same,FICI,"[5]; MAB03, AMP + CLA, mean ± S.D., two independent experiments",0.52±0.00
same,"MIC, AMP alone","[5]; MAB03, AMP alone",12.5 µg/mL
same,FICI,"[6]; MAB09, AMP + CLA, mean ± S.D., two independent experiments",0.52±0.00
same,"MIC, AMP alone","[6]; MAB09, AMP alone",>400 µg/mL
same,FICI,"[7]; MAB02, AMP + CLA, mean ± S.D., two independent experiments",1.04±0.04
same,"MIC, AMP alone","[7]; MAB02, AMP alone",>400 µg/mL
same,FICI,"[8]; MAB11, AMP + CLA, mean ± S.D., two independent experiments",0.76±0.35
same,"MIC, AMP alone","[8]; MAB11, AMP alone",>400 µg/mL
same,FICI,"[9]; MAB01, AMP + CLA, mean ± S.D., two independent experiments",0.63±0.17
same,FICI,"[10]; MAB05, AMP + CLA, mean ± S.D., two independent experiments",1.01±0.00
same,"MIC, AMP alone","[10]; MAB05, AMP alone",>400 µg/mL
same,FICI,"[11]; MAB10, AMP + CLA, mean ± S.D., two independent experiments",0.07±0.00
same,"MIC, AMP alone","[11]; MAB10, AMP alone",>400 µg/mL
same,FICI,"[12]; MAB07, AMP + CLA, mean ± S.D., two independent experiments",0.04±0.01
same,"MIC, AMP alone","[12]; MAB07, AMP alone",>400 µg/mL
same,"Antimicrobial peptides against M. abscessus isolates, MIC value",[13],>400 µg/mL
same,"Antimicrobial peptides against M. abscessus isolates, MIC value",[14],>400 µg/mL
same,"Antimicrobial peptides against M. abscessus isolates, MIC value",[15],>400 µg/mL
same,"Antimicrobial peptides against M. abscessus isolates, MIC value",[16],>400 µg/mL
"CC[C@H]1OC(=O)[C@H](C)[C@@H](O[C@H]2C[C@@](C)(OC)[C@@H](O)[C@H](C)O2)[C@H](C)[C@@H](O[C@@H]2O[C@H](C)C[C@H](N(C)C)[C@H]2O)[C@](C)(OC)C[C@@H](C)C(=O)[C@H](C)[C@@H](O)[C@]1(C)O [CLA, Clarithromycin]","MIC of CLA, combined CLA + S61","[3]; MAB14, checkerboard, in combination with S61",4 µg/mL
same,"MIC of CLA, combined CLA + S62","[3]; MAB14, checkerboard, in combination with S62",4 µg/mL
same,"MIC of CLA, combined CLA + S63","[3]; MAB14, checkerboard, in combination with S63",32 µg/mL
same,MIC,[3]; [17],512 µg/mL
same,"MIC of CLA, combined CLA + S61","[4]; MAB12, checkerboard, in combination with S61","1,024 μg/ml"
same,"MIC of CLA, combined CLA + S62","[4]; MAB12, checkerboard, in combination with S62","1,024 μg/ml"
same,"MIC of CLA, combined CLA + S63","[4]; MAB12, checkerboard, in combination with S63","1,024 μg/ml"
same,MIC,[4]; [17],1020 µg/mL
same,"MIC of CLA, combined CLA + S61","[5]; MAB03, checkerboard, in combination with S61",2 µg/mL
same,"MIC of CLA, combined CLA + S62","[5]; MAB03, checkerboard, in combination with S62",1.5 µg/mL
same,"MIC of CLA, combined CLA + S63","[5]; MAB03, checkerboard, in combination with S63",4 µg/mL
same,MIC,[5]; [17],8 µg/mL
same,"MIC of CLA, combined CLA + S61","[6]; MAB09, checkerboard, in combination with S61",8 µg/mL
same,"MIC of CLA, combined CLA + S62","[6]; MAB09, checkerboard, in combination with S62",6 µg/mL
same,"MIC of CLA, combined CLA + S63","[6]; MAB09, checkerboard, in combination with S63",4 µg/mL
same,MIC,[6]; [17],8 µg/mL
same,"MIC of CLA, combined CLA + S61","[7]; MAB02, checkerboard, in combination with S61",64 µg/mL
same,"MIC of CLA, combined CLA + S62","[7]; MAB02, checkerboard, in combination with S62",64 µg/mL
same,"MIC of CLA, combined CLA + S63","[7]; MAB02, checkerboard, in combination with S63",64 µg/mL
same,MIC,[7]; [17],64 µg/mL
same,"MIC of CLA, combined CLA + S61","[8]; MAB11, checkerboard, in combination with S61",128 µg/mL
same,"MIC of CLA, combined CLA + S62","[8]; MAB11, checkerboard, in combination with S62",192 µg/mL
same,"MIC of CLA, combined CLA + S63","[8]; MAB11, checkerboard, in combination with S63",192 µg/mL
same,MIC,[8]; [17],512 µg/mL
same,"MIC of CLA, combined CLA + S61","[9]; MAB01, checkerboard, in combination with S61",32 µg/mL
same,"MIC of CLA, combined CLA + S62","[9]; MAB01, checkerboard, in combination with S62",96 µg/mL
same,MIC,[9]; [17],1020 µg/mL
same,"MIC of CLA, combined CLA + S61","[10]; MAB05, checkerboard, in combination with S61",16 µg/mL
same,"MIC of CLA, combined CLA + S62","[10]; MAB05, checkerboard, in combination with S62",16 µg/mL
same,"MIC of CLA, combined CLA + S63","[10]; MAB05, checkerboard, in combination with S63",16 µg/mL
same,MIC,[10]; [17],16 µg/mL
same,"MIC of CLA, combined CLA + S61","[11]; MAB10, checkerboard, in combination with S61",32 µg/mL
same,"MIC of CLA, combined CLA + S62","[11]; MAB10, checkerboard, in combination with S62",32 µg/mL
same,"MIC of CLA, combined CLA + S63","[11]; MAB10, checkerboard, in combination with S63",8 µg/mL
same,MIC,[11]; [17],1020 µg/mL
same,"MIC of CLA, combined CLA + S61","[12]; MAB07, checkerboard, in combination with S61",0.25 µg/mL
same,"MIC of CLA, combined CLA + S62","[12]; MAB07, checkerboard, in combination with S62",0.25 µg/mL
same,"MIC of CLA, combined CLA + S63","[12]; MAB07, checkerboard, in combination with S63",0.25 µg/mL
same,MIC,[12]; [17],16 µg/mL
